Some results are limits rather than exact numbers.

The target in experiment [1] is T1, GCN2 (Homo sapiens, UniProt Q9P2K8). Briefly: GCN2 enzyme assay (TR-FRET Lanthascreen, phosphorylation of GFP-eIF2alpha). The class given is biochemical. The following applies: 10 μM ATP, 80 nM GFP-eIF2alpha, 30 nM GCN2, room temperature. The source says:
GCN2: Assay principle & conditions
This assay can quantificate the activity of the serin kinase GCN2 (general control non-derepressible-2).
This kinase is involved in the stress metabolism of cells. It is activated upon starvation (amino acid depletion). Its natural substrate is eIF2a (eukaryotic initiation factor 2 alpha subunit), a translation factor, which gets activated (phosphorylated) by GCN2 in case of an amino acid bottleneck in the cells. This in turn leads to a halt of the protein synthesis. Inhibition of GCN2 results in stopping this mechanism: The cell can not stop protein production upon “starvation” stress.
The assay is run in two steps: the enzymatic reaction and the detection step. In the first step GCN2 is incubated with 10 μM ATP and 80 nM of the GFP-labelled substrate eIF2alpha at room temperature.
The enzymatic reaction is stopped by addition of EDTA. The amount of phosphorylated eIF2alpha is determined by TR-FRET (Lanthascreen): A complex is formed consisting of antibody and GFP labelled phospho-eIF2a, which allows a FRET upon exitation at 340 nm.
The GCN2-activity is directly proportional to the ratio of fluorescence units at the emission wavelengthh 520 nm (phosphopeptide-sensitive wavelength=emission of GFP) to the units at 495 nm (reference wavelength=emission of Terbium-chelate).
Final Concentrations in the Enzymatic Reaction
A general note: In TR-FRET formats the signal depends on donor and acceptor labels being close together.
Target sequence in this assay (Q9P2K8 whole entry, species assumed): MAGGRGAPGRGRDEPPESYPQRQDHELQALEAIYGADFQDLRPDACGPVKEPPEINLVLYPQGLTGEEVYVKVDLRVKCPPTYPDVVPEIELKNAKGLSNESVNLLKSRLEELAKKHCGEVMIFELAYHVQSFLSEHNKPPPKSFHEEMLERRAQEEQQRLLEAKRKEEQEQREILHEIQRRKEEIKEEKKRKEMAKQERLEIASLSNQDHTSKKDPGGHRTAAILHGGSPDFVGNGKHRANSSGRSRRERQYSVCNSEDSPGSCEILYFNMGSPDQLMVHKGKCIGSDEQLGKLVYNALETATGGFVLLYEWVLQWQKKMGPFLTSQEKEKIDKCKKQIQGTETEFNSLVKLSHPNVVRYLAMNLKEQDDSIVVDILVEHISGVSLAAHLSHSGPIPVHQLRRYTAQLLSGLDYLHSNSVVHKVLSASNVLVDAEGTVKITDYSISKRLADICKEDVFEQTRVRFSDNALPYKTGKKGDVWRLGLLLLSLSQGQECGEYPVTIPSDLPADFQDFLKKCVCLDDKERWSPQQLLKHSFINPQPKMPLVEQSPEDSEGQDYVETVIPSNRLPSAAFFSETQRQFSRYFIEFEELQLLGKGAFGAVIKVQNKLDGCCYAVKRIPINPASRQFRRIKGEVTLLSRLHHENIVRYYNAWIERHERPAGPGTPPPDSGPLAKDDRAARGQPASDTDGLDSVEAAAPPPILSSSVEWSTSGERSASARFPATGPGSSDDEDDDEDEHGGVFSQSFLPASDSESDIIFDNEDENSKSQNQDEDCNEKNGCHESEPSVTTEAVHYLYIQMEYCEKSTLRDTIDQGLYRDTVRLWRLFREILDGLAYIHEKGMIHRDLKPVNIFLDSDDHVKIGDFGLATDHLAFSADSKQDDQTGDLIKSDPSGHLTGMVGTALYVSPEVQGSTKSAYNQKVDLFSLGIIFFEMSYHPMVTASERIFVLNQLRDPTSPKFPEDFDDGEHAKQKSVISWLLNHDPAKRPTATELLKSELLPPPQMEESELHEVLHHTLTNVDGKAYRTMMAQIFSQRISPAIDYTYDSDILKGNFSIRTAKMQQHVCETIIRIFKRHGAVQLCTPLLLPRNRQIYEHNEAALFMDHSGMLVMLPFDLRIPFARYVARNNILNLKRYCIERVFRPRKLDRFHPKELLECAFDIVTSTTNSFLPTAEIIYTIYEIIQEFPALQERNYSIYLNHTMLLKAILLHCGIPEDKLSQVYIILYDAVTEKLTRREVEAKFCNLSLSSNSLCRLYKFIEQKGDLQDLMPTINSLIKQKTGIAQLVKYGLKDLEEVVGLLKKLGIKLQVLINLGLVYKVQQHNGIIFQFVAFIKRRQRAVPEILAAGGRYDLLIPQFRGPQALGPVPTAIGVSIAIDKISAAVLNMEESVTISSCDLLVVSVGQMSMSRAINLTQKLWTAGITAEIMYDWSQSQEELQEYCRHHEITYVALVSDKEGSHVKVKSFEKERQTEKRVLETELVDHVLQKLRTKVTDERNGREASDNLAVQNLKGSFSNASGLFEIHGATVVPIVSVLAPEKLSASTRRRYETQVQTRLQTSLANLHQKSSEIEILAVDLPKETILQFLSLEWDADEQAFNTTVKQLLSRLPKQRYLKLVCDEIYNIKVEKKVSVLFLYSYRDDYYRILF

Experiment [2] addresses T1, GCN2. Briefly: Cellular assay for GCN2 activity (phospho-eIF2alpha immunocytochemistry, tryptophanol-stimulated U2OS cells). Type of experiment: cell-based. To be noted: 2 hours compound, then 600 μM tryptophanol 30 minutes, anti-phospho-eIF2alpha, read-out: IC50 GCN2 (cell assay). Also noted: endogenous in cells; host or cells: U2OS. The protocol: Cellular Assay for the Determination of Compound Activities
Human U2OS cells (2000 cells/well) are seeded into 384-well plates and incubated for 20 hours.
The next day, the cells are treated with the test compounds and incubated for 2 hours. Then, tryptophanol, at a final concentration of 600 μM, is added to the cells and those are incubated for 30 minutes.
The analysis of cellular GCN2 activities is done by immunocytochemistry. Briefly, cells are fixated on the well surfaces by formaldehyde and permeabilised with Triton X-100. The primary antibody (anti-phospho-eIF2alpha (Ser51, Cell Signalling Technology, #3398) is incubated on the treated cells for 20 hours, followed by a 60 minutes incubation of the secondary antibody (anti-rabbit-IgG-Alexa 488; Molecular Probes #11008). The analysis and quantification of phosphorylated GCN2 is done by scanning the plates in the Acumen Explorer system (TTPLabtech). The obtained data are normalised against the untreated control wells (DMSO only) and expressed as % effect values. The determination of IC50 values is done by using the Graph Pad Prism software.
Target sequence in this assay (Q9P2K8 whole entry): as the sequence (Q9P2K8 whole entry, species assumed) above

Turning to `CCn1cc(Nc2ncc3nnn(-c4ccc(C(=O)OC)cc4)c3n2)cn1` [Compound A117, 4-[5-(1-ethyl-1H-pyrazol-4-ylamino)-[1,2,3]triazolo[4,5-d]pyrimidin-3-yl]-benzoic acid methyl ester], the IC50 in experiment [1] is less than 300 nM; in experiment [2], 300 to 3000 nM.

With `CC(C)(O)c1ccc(-n2nnc3cnc(Nc4cnn(C5CCOCC5)c4)nc32)cc1` [Compound A119, 2-(4-{5-[1-(tetrahydro-pyran-4-yl)-1H-pyrazol-4-ylamino]-[1,2,3]triazolo[4,5-d]pyrimidin-3-yl}-phenyl)-propan-2-ol], the values for the IC50 in experiment [1] and in experiment [2] were less than 300 nM and 300 to 3000 nM, respectively.

For `CCn1cc(Nc2ncc3nnn(-c4ccc5ncccc5c4)c3n2)cn1` [Compound A71, (1-ethyl-1H-pyrazol-4-yl)-(3-quinolin-6-yl-3H-[1,2,3]triazolo[4,5-d]pyrimidin-5-yl)-amine], the figures for the IC50 in experiment [1] and in experiment [2] were less than 300 nM and 300 to 3000 nM, respectively.

`COCCOc1ccc(-n2nnc3cnc(Nc4cnn(C5CCN(C(C)=O)C5)c4)nc32)cc1` (stereo not drawn) [Compound A99, 1-[3-(4-{3-[4-(2-methoxy-ethoxy)-phenyl]-3H-[1,2,3]triazolo[4,5-d]pyrimidin-5-ylamino}-pyrazol-1-yl)-pyrrolidin-1-yl]-ethanone]: the results for the IC50 in experiment [1] and in experiment [2] were less than 300 nM and 3000 to 50000 nM, respectively.

For `CN1CCC(n2cc(Nc3ncc4nnn(-c5ccc6cccnc6c5)c4n3)cn2)CC1` [Compound A73, [1-(1-methyl-piperidin-4-yl)-1H-pyrazol-4-yl]-(3-quinolin-7-yl-3H-[1,2,3]triazolo[4,5-d]pyrimidin-5-yl)-amine], the IC50 in experiment [1] was less than 300 nM; in experiment [2], 3000 to 50000 nM.

For `CCn1cc(Nc2ncc3nnn(-c4cnn(CC)c4)c3n2)cn1` [Compound A106, (1-ethyl-1H-pyrazol-4-yl)-[3-(1-ethyl-1H-pyrazol-4-yl)-3H-[1,2,3]triazolo[4,5-d]pyrimidin-5-yl]-amine], the IC50 in experiment [1] was less than 300 nM; in experiment [2], 3000 to 50000 nM.

For the molecule `CCOc1ccc(-n2nnc3cnc(Nc4cnn(CCC5CCNCC5)c4)nc32)cc1` [Compound A97, [3-(4-ethoxy-phenyl)-3H-[1,2,3]triazolo[4,5-d]pyrimidin-5-yl]-[1-(2-piperidin-4-yl-ethyl)-1H-pyrazol-4-yl]-amine], the IC50 in experiment [1] is less than 300 nM; in experiment [2], 300 to 3000 nM.

Regarding `O[C@H]1CC[C@H](n2cc(Nc3ncc4nnn(-c5ccc(Cl)c(F)c5)c4n3)cn2)CC1` [Compound A103, 4-{4-[3-(4-chloro-3-fluoro-phenyl)-3H-[1,2,3]triazolo[4,5-d]pyrimidin-5-ylamino]-pyrazol-1-yl}-cyclohexanol], the IC50 in experiment [1] and in experiment [2] was less than 300 nM throughout.

On to `CCOc1ccc(-n2nnc3cnc(Nc4cnn(CCCOC)c4)nc32)cc1` [Compound A49, [3-(4-ethoxy-phenyl)-3H-[1,2,3]triazolo[4,5-d]pyrimidin-5-yl]-[1-(3-methoxy-propyl)-1H-pyrazol-4-yl]-amine], for which the IC50 was less than 300 nM in experiment [1] and 3000 to 50000 nM in experiment [2].

Take `CN1CCC(n2cc(Nc3ncc4nnn(-c5ccc6nccnc6c5)c4n3)cn2)CC1` [Compound A101, [1-(1-methyl-piperidin-4-yl)-1H-pyrazol-4-yl]-(3-quinoxalin-6-yl-3H-[1,2,3]triazolo[4,5-d]pyrimidin-5-yl)-amine]: the results for the IC50 in experiment [1] and in experiment [2] were less than 300 nM and 3000 to 50000 nM, respectively.

As for `CCn1cc(Nc2ncc3nnn(-c4ccc(C(C)(C)O)cc4)c3n2)cn1` [Compound A121, 2-{4-[5-(1-ethyl-1H-pyrazol-4-ylamino)-[1,2,3]triazolo[4,5-d]pyrimidin-3-yl]-phenyl}-propan-2-ol], the values for the IC50 in experiment [1] and in experiment [2] were less than 300 nM and 300 to 3000 nM, respectively.

As to `NC(=O)c1ccc(-n2nnc3cnc(Nc4cnn(C5CCOCC5)c4)nc32)cc1` [Compound A80, 4-{5-[1-(tetrahydro-pyran-4-yl)-1H-pyrazol-4-ylamino]-[1,2,3]triazolo[4,5-d]pyrimidin-3-yl}-benzamide], the IC50 in experiment [1] was 300 to 3000 nM; in experiment [2], less than 300 nM.

`CCn1cc(Nc2ncc3nnn(-c4ccc(C(C)(C)F)cc4)c3n2)cn1` [Compound A128, (1-ethyl-1H-pyrazol-4-yl)-{3-[4-(1-fluoro-1-methyl-ethyl)-phenyl]-3H-[1,2,3]triazolo[4,5-d]pyrimidin-5-yl}-amine]: the IC50 in experiment [1] was less than 300 nM; in experiment [2] it was 300 to 3000 nM.

With `CCn1cc(-n2nnc3cnc(Nc4cnn(CCC(C)C)c4)nc32)cn1` [Compound A89, [3-(1-ethyl-1H-pyrazol-4-yl)-3H-[1,2,3]triazolo[4,5-d]pyrimidin-5-yl]-[1-(3-methyl-butyl)-1H-pyrazol-4-yl]-amine], the IC50 in experiment [1] was less than 300 nM.

Molecule `CCOc1ccc(-n2nnc3cnc(Nc4cnn(-c5ccccc5)c4)nc32)cc1` [Compound A64, [3-(4-ethoxy-phenyl)-3H-[1,2,3]triazolo[4,5-d]pyrimidin-5-yl]-(1-phenyl-1H-pyrazol-4-yl)-amine] registered an IC50 in experiment [1] of less than 300 nM.

For the molecule `CCOc1ccc(-n2nnc3cnc(Nc4cn[nH]c4)nc32)cc1` [Compound A5, [3-(4-ethoxy-phenyl)-3H-[1,2,3]triazolo[4,5-d]pyrimidin-5-yl]-(1H-pyrazol-4-yl)-amine], in experiment [1], the IC50 was less than 300 nM.

In the case of `CCOc1ccc(-n2nnc3cnc(Nc4cnn(CCN5CCC(O)C5)c4)nc32)cc1` (stereo not drawn) [Compound A151, 1-(2-{4-[3-(4-ethoxy-phenyl)-3H-[1,2,3]triazolo[4,5-d]pyrimidin-5-ylamino]-pyrazol-1-yl}-ethyl)-pyrrolidin-3-ol], the IC50 in experiment [1] is less than 300 nM.

With `Fc1cc(-n2nnc3cnc(Nc4cnn(CCN5CCOCC5)c4)nc32)ccc1Cl` [Compound A114, [3-(4-chloro-3-fluoro-phenyl)-3H-[1,2,3]triazolo[4,5-d]pyrimidin-5-yl]-[1-(2-morpholin-4-yl-ethyl)-1H-pyrazol-4-yl]-amine], the IC50 in experiment [1] fell in the range of 300 to 3000 nM.

Molecule `CCn1cc(Nc2ncc3nnn(-c4ccc(NC(C)=O)nc4)c3n2)cn1` [Compound A58, N-{5-[5-(1-ethyl-1H-pyrazol-4-ylamino)-[1,2,3]triazolo[4,5-d]pyrimidin-3-yl]-pyridin-2-yl}-acetamide] displayed an IC50 in experiment [1] of less than 300 nM.

Consider `CCCCOc1ccc(-n2nnc3cnc(Nc4cnn(CC)c4)nc32)cn1` [Compound A57, [3-(6-butoxy-pyridin-3-yl)-3H-[1,2,3]triazolo[4,5-d]-pyrimidin-5-yl]-(1-ethyl-1H-pyrazol-4-yl)-amine], for which the IC50 in experiment [1] was in the range of 300 to 3000 nM.

As to `COc1ccc(-n2nnc3cnc(Nc4cnn(C)c4)nc32)cc1` [Compound A18, [3-(4-methoxy-phenyl)-3H-[1,2,3]triazolo[4,5-d]pyrimidin-5-yl]-(1-methyl-1H-pyrazol-4-yl)-amine], the IC50 in experiment [1] was less than 300 nM.

`c1cnc2cc(-n3nnc4cnc(Nc5cnn(C6CCOCC6)c5)nc43)ccc2n1` [Compound A94, (3-quinoxalin-6-yl-3H-[1,2,3]triazolo[4,5-d]pyrimidin-5-yl)-[1-(tetrahydro-pyran-4-yl)-1H-pyrazol-4-yl]-amine] showed an IC50 in experiment [1] of less than 300 nM.

In the case of `O[C@H]1CC[C@@H](n2cc(Nc3ncc4nnn(-c5ccc6nccnc6c5)c4n3)cn2)CC1` [Compound A105, 4-[4-(3-quinoxalin-6-yl-3H-[1,2,3]triazolo[4,5-d]pyrimidin-5-ylamino)-pyrazol-1-yl]-cyclohexanol], the IC50 in experiment [1] is less than 300 nM.

Broadly, the IC50 is the point on the concentration scale where inhibition reaches its midpoint.

Source of the values: patent US9409914B2, “Triazolo[4,5-d]pyrimidine derivatives” (Merck Patent GmbH, priority 2012, dated 2016).
